# From US20250066287A1, “PHASE CHANGE AROMATIC AZO COMPOUNDS, METHOD OF MANUFACTURE, AND USE AS HOMOGENOUS CATALYST” (priority 2023, published 2025)
# Several values for one entry are separate records, joined by “and”; a condition that tells them apart may be missing. Equal entries are not always repeated. Where two headings read alike, the source gives them in different places.
# Assays:
# [1] = Absorption coefficient of reactants, products and catalysts (UV-Vis); type: physicochemical
# Procedure: Ultraviolet-visible (UV-Vis) absorption spectra were obtained with a Cary 50 Bio UV-Vis spectrophotometer in a UV Quartz cuvette with a path length of 10 mm. Compounds were dissolved in solvents at a concentration of 0.0125 mg/ml unless otherwise specified. The UV-Vis absorption was first recorded in dark for 5 min, then samples were irradiated with a specified wavelength until no change in their absorbance was observed. Samples were irradiated with Thorlabs LEDs: M340L4 (340 nm, 2.22 μW/mm^2, 60 mW), M430L4 (430 nm, 35.3 μW/mm^2, 600 mW). […]
# [2] = Photoswitching between E and Z (UV-vis, photostationary state); type: physicochemical; details: dilute solution; compound 1 in acetonitrile, compound 2 in methanol
# Procedure: To find solvents in which the ratio between the maximum concentrations of Z and E isomers at the respective photostationary state (PSS) (i.e., r=[Z]max/[E]max) is the greatest, a solvent screening test for each compound was performed (FIGS. 21-24).
# Ultraviolet-visible (UV-Vis) absorption spectra were obtained with a Cary 50 Bio UV-Vis spectrophotometer in a UV Quartz cuvette with a path length of 10 mm. Compounds were dissolved in solvents at a concentration of 0.0125 mg/ml unless otherwise specified. The UV-Vis absorption was first recorded in dark for 5 min, then samples were irradiated with a specified wavelength until no change in their absorbance was observed. Samples were irradiated with Thorlabs LEDs: M340L4 (340 nm, 2.22 μW/mm^2, 60 mW), M430L4 (430 nm, 35.3 μW/mm^2, 600 mW).
# [3] = Thermal reversion kinetics measurements (Z-to-E); type: physicochemical; details: 1 in MeCN, 2 in MeOH; for τ1/2 (thermal half-life of Z isomer): Z-to-E thermal reversion at 298 K (room temperature); for ΔG^‡ / ΔH^‡ / ΔS‡: thermal isomerization of Z isomers at 298 K
# Procedure: Thermal reversion kinetics measurements. The thermal half-life of compounds 1 and 2 were determined by following a reported procedure (G. D. Han, et all., J. Mater. Chem. A 2016, 4, 16157-16165). A solution of compounds 1 or 2 (˜1.7×10^−5 M) were prepared in MeCN and MeOH, respectively, then irradiated at 340 nm to obtain a Z-rich solution at photostationary state (PSS), which was then heated at three different elevated temperatures (compound 1: 333 K, 338 K, 343 K; compound 2: 318 K, 323 K, 328 K) in dark.
# [4] = Kinetic tests of Henry reaction; details: for product yield: pre-activated Z, 24 hours; for rate constant kZ: pre-activated soluble Z
# [5] = Solvent screening for reversible solubility changes; details: 0.5 mg in 1 mL; irradiation of 340 nm and 430 nm
# Procedure: To determine solubility, 0.5 mg of compounds were added to 1 mL of common solvents (1-MeOH, 2-acetonitrile (MeCN), 3-acetone, 4-THF, 5-hexane, 6-EtOAc, 7-DMF, 8-DMSO, and 9-toluene, respectively). […] The samples with suspensions were then stirred overnight under 340 nm irradiation. […] These samples were then stirred for 4 hours under 430 nm to trigger the precipitation of the compounds.
# [6] = Light-induced precipitation of catalysts from pristine solvent; type: physicochemical; details: within 10 min of 430 nm irradiation; 1 in acetonitrile, 2 in methanol
# Procedure: FIG. 6 and FIG. 25 illustrate the efficiencies of 430 nm induced catalyst precipitation and recovery for compounds 1 and 2, which were obtained by weighing the filtered precipitates after irradiation. […] The full recovery of the catalysts is limited by the PSS ratios of compounds at 430 nm (82% for 1- E and 84% for 2-E).
# Light-induced precipitation of catalysts. To determine light-induced precipitation of catalysts, 44 mg of compound 1 and 34 mg of compound 2 were added to 2 mL of acetonitrile and methanol, respectively. The suspensions were irradiated at 340 nm overnight to obtain clear Z solutions. Then, the solutions were irradiated at 430 nm and monitored over 10 min.
# [7] = Michael addition in acetonitrile; in 10 hours
# Procedure: For compound 1: To a solution of trans-β-nitrostyrene (11.1 mg, 7.5 μmol) and acetylacetone (7.6 mg, 7.5 μmol) in MeCN (0.25 mL) was added either insoluble E isomer or pre-activated Z isomer of compound 1 (5.4 mg, 0.75 μmol). Three identical samples were prepared. 0.2 mL of the solution was taken to check the product yield via ^1H NMR at each time point.
# [8] = Cycling tests of Michael addition reaction; details: Michael addition in acetonitrile; after the subsequent two reactions with recovered catalyst, 10 mol % loading
# [9] = Cycling tests of Henry reaction; details: acetonitrile
# [10] = Quantification of solubility of E and Z isomers in select solvents; details: for Isomer (% E): saturated solution after 340 nm irradiation
# Procedure: Quantification of solubility. […] The mixtures were sonicated for 5 min. The obtained suspensions were filtered with a PTFE filter to remove the excess solids. The solvents in clear filtrates were removed using a rotary evaporator and the solutes were dried under vacuum overnight.
# wherein [Z]max and [E]max are the maximum concentration of the Z-isomer and the E-isomer, respectively.
# [11] = pristine azobenzene; cited from earlier work
# [12] = Henry reaction, 1 in acetonitrile, 2 in methanol
# [13] = MeCN, Z-rich after 340 nm irradiation overnight
# [14] = Toluene, Z-rich after 340 nm irradiation overnight
# [15] = EtOAc, Z-rich after 340 nm irradiation overnight
# [16] = MeOH, Z-rich after 340 nm irradiation overnight
smiles,measurement,setting,value
"CC(=O)CC(C)=O [Acetylacetone, acetylacetone]",ε340 nm,[1]; MeCN,2.4 M⁻¹ cm⁻¹
same,ε340 nm,[1]; MeOH,31.1 M⁻¹ cm⁻¹
CN(CCCNC(=O)c1ccc(C(=O)NCCCN(C)CCc2ccc(/N=N/c3ccccc3)cc2)cc1)CCc1ccc(/N=N/c2ccccc2)cc1 [Compound 1-E],% E after irradiation at 430 nm (PSS),[2],82 % E
same,ε340 nm,[1]; MeCN,24004 M⁻¹ cm⁻¹ and 24004.3 M⁻¹ cm⁻¹
same,ε430 nm,[1]; MeCN,2336.5 M⁻¹ cm⁻¹
CN(CCCNC(=O)c1ccc(C(=O)NCCCN(C)CCc2ccc(/N=N\c3ccccc3)cc2)cc1)CCc1ccc(/N=N\c2ccccc2)cc1 [Compound 1-Z],τ1/2 (thermal half-life of Z isomer),[3],199 h
same,product yield,[4]; [12],about 70%
same,rate constant kZ,[4]; [12],1.37e-05 s⁻¹
same,ε340 nm,[1]; MeCN,6780.1 M⁻¹ cm⁻¹
same,ε430 nm,[1]; MeCN,2857.4 M⁻¹ cm⁻¹
CN(CCCNC(=O)c1ccc(C(=O)NCCCN(C)CCc2ccc(N=Nc3ccccc3)cc2)cc1)CCc1ccc(N=Nc2ccccc2)cc1 [Compound 1],ideal solvent candidates for reversible solubility changes,[5],MeCN and toluene
same,% E after irradiation at 430 nm (PSS),[2],82 % E
same,% Z after irradiation at 340 nm (PSS),[2],~88 % Z
same,% Z drop in the suspension,[6],75%
same,τ1/2 (thermal half-life of Z isomer),[3],199 h
same,ΔG^‡,[3],25.67 kcal/mol
same,ΔH^‡,[3],23.97 kcal/mol
same,ΔS‡,[3],−23.8 J mol^−1K^−1
same,product yield of Z-rich catalyst compared to its E counterpart,[7],2.4 fold
same,product yield,[8],82%
same,% Z by in-situ UV-induced E→Z isomerization in the reaction medium,"[4]; Henry reaction mixture in acetonitrile, after 24-hour 340 nm irradiation",48 % Z
same,rate constant kE-UV,"[4]; Henry reaction, in-situ UV (340 nm) activated catalyst, 1 in acetonitrile, 2 in methanol",4.24e-06 s⁻¹
same,yield of product,[9]; 1st Henry reaction (16 hours),56%
same,yield of product,[9]; 2nd Henry reaction (16 hours),57%
same,yield of product,[9]; third Henry reaction (24 hours),70%
same,r=[Z]max/[E]max,[10]; MeCN (acetonitrile),10.4 and 10.3
same,Solubility,"[10]; MeCN, E isomer (100% E)",2.1 g/L and 2.9 mM
same,Solubility,[10]; [13],22 g/L and 30 mM
same,Isomer (% E),[10]; MeCN,12 % E
same,r=[Z]max/[E]max,[10]; Toluene,2.8
same,Solubility,"[10]; Toluene, E isomer (100% E)",5.4 g/L and 7.5 mM
same,Solubility,[10]; [14],15 g/L and 21 mM
same,Isomer (% E),[10]; Toluene,17 % E
CN(CCCNC(=O)c1ccc(-c2ccc(C(=O)NCCCN(C)CCc3ccc(/N=N/c4ccccc4)cc3)cc2)cc1)CCc1ccc(/N=N/c2ccccc2)cc1 [Compound 2-E],% E after irradiation at 430 nm (PSS),[2],84 % E
same,ε340 nm,[1]; MeOH,25623 M⁻¹ cm⁻¹ and 25623.3 M⁻¹ cm⁻¹
same,ε430 nm,[1]; MeOH,2375.3 M⁻¹ cm⁻¹
CN(CCCNC(=O)c1ccc(-c2ccc(C(=O)NCCCN(C)CCc3ccc(/N=N\c4ccccc4)cc3)cc2)cc1)CCc1ccc(/N=N\c2ccccc2)cc1 [Compound 2-Z],τ1/2 (thermal half-life of Z isomer),[3],84 h
same,product yield,[4]; [12],85%
same,rate constant kZ,[4]; [12],2.6e-05 s⁻¹
same,ε340 nm,[1]; MeOH,2937.1 M⁻¹ cm⁻¹
same,ε430 nm,[1]; MeOH,3632.2 M⁻¹ cm⁻¹
CN(CCCNC(=O)c1ccc(-c2ccc(C(=O)NCCCN(C)CCc3ccc(N=Nc4ccccc4)cc3)cc2)cc1)CCc1ccc(N=Nc2ccccc2)cc1 [Compound 2],ideal solvent candidates for reversible solubility changes,[5],MeOH and EtOAc
same,% E after irradiation at 430 nm (PSS),[2],84 % E
same,% Z after irradiation at 340 nm (PSS),[2],84 % Z
same,% Z drop in the suspension,[6],75%
same,τ1/2 (thermal half-life of Z isomer),[3],84 h
same,ΔG^‡,[3],25.14 kcal/mol
same,ΔH^‡,[3],18 kcal/mol
same,ΔS‡,[3],−99.7 J mol^−1K^−1
same,rate constant kE-UV,[4],1.16×10 ^−5 s^−1
same,r=[Z]max/[E]max,[10]; EtOAc,6.0
same,Solubility,"[10]; EtOAc, E isomer (100% E)",2.4 g/L and 3.0 mM
same,Solubility,[10]; [15],14 g/L and 18 mM
same,Isomer (% E),[10]; EtOAc,14 % E
same,r=[Z]max/[E]max,[10]; MeOH (methanol),8.8
same,Solubility,"[10]; MeOH, E isomer (100% E)",1.9 g/L and 2.4 mM
same,Solubility,[10]; [16],17 g/L and 21 mM
same,Isomer (% E),[10]; MeOH,16 % E
CN(CCCNC(=O)c1ccc2cc(C(=O)NCCCN(C)CCc3ccc(N=Nc4ccccc4)cc3)ccc2c1)CCc1ccc(N=Nc2ccccc2)cc1 [Compound 3],ideal solvent candidates for reversible solubility changes,[5],MeOH and acetone
same,r=[Z]max/[E]max,[10]; Acetone,5.7
same,Solubility,"[10]; Acetone, E isomer (100% E)",3.8 g/L and 4.9 mM
same,Isomer (% E),[10]; Acetone,14 % E
same,r=[Z]max/[E]max,[10]; MeOH (methanol),4.0
same,Solubility,"[10]; MeOH, E isomer (100% E)",3.9 g/L and 5.0 mM
same,Solubility,[10]; [16],16 g/L and 20 mM
same,Isomer (% E),[10]; MeOH,27 % E
CN(CCCNC(=O)CCCC#CC#CCCCC(=O)NCCCN(C)CCc1ccc(N=Nc2ccccc2)cc1)CCc1ccc(N=Nc2ccccc2)cc1 [Compound 4],ideal solvent candidates for reversible solubility changes,[5],no solvent is ideal
same,r=[Z]max/[E]max,[10]; EtOAc,9.4
same,Solubility,"[10]; EtOAc, E isomer (100% E)",2.6 g/L and 3.3 mM
same,Solubility,[10]; [15],24 g/L and 31 mM
same,Isomer (% E),[10]; EtOAc,23 % E
same,r=[Z]max/[E]max,[10]; MeCN (acetonitrile),10.0
same,Solubility,"[10]; MeCN, E isomer (100% E)",3.3 g/L and 4.3 mM
same,Solubility,[10]; [13],33 g/L and 43 mM
same,Isomer (% E),[10]; MeCN,9 % E
same,r=[Z]max/[E]max,[10]; Toluene,13.9
same,Solubility,"[10]; Toluene, E isomer (100% E)",2.6 g/L and 3.3 mM
same,Solubility,[10]; [14],36 g/L and 46 mM
same,Isomer (% E),[10]; Toluene,55 % E
"O=Cc1ccc([N+](=O)[O-])cc1 [Nitrobenzaldehyde, 4-nitrobenzaldehyde]",ε340 nm,[1]; MeCN,323.3 M⁻¹ cm⁻¹
same,ε340 nm,"[1]; MeCN, listed as 4-nitrobenzaldehyde",323 M⁻¹ cm⁻¹
same,ε340 nm,[1]; MeOH,312.5 M⁻¹ cm⁻¹
"CC[N+](=O)[O-] [Nitroethane, nitroethane]",ε340 nm,[1]; MeCN,0.3 M⁻¹ cm⁻¹
same,ε340 nm,[1]; MeOH,1.3 M⁻¹ cm⁻¹
"O=[N+]([O-])/C=C/c1ccccc1 [Nitrostyrene, trans-β-nitrostyrene]",ε340 nm,[1]; MeCN,11327.3 M⁻¹ cm⁻¹
same,ε340 nm,"[1]; MeCN, listed as trans-β-nitrostyrene",11327 M⁻¹ cm⁻¹
same,ε340 nm,[1]; MeOH,15390.7 M⁻¹ cm⁻¹
c1ccc(N=Nc2ccccc2)cc1 [azobenzene],% E at 430 nm (photoswitching property),[11],83 % E
